Values quoted from earlier work, collected in US20160143911A1, “STABLE AND WATER SOLUBLE PHARMACEUTICAL COMPOSITIONS COMPRISING PEMETREXED” (SYNTHON B.V., priority 2013, published 2016).

Settings: free diacid form

In the case of `Nc1nc2[nH]cc(CCc3ccc(C(=O)N[C@@H](CCC(=O)O)C(=O)O)cc3)c2c(=O)[nH]1` [pemetrexed diacid, N-[4-[2-(2-amino-4,7-dihydro-4-oxo-1H-pyrrolo [2,3-d]pyrimidin-5-yl)ethyl]benzoyl]-L-glutamic acid], the Solubility in water is listed as “only sparingly soluble in water”.
